Assay results from the NIST ThermoML archive (doi:10.1021/je0202174).
± gives the expanded uncertainty stated by the source.

Details: Liquid

C1CCCC1 [cyclopentane]
Details	viscosity [mPa·s]
253.15 K	0.7268 ± 0.012
258.15 K	0.6786 ± 0.011
263.15 K	0.6347 ± 0.011
268.15 K	0.593 ± 0.01
273.15 K	0.5567 ± 0.0098
278.15 K	0.5224 ± 0.0093
283.15 K	0.4922 ± 0.0089
288.15 K	0.4646 ± 0.0085
293.15 K	0.4382 ± 0.0081
298.15 K	0.4148 ± 0.0078
303.15 K	0.3923 ± 0.0075
308.15 K	0.3714 ± 0.0072
313.15 K	0.3521 ± 0.0069
318.15 K	0.335 ± 0.0067
323.15 K	0.319 ± 0.0065
328.15 K	0.3048 ± 0.0063
333.15 K	0.2912 ± 0.0061
338.15 K	0.2793 ± 0.0059
343.15 K	0.269 ± 0.0058
348.15 K	0.259 ± 0.0056
353.15 K	0.2502 ± 0.0055

CCC(C)C [2-methylbutane]
Details	viscosity [mPa·s]
253.15 K	0.3893 ± 0.0075
258.15 K	0.3661 ± 0.0072
263.15 K	0.3439 ± 0.0069
268.15 K	0.3201 ± 0.0065
273.15 K	0.3023 ± 0.0063
278.15 K	0.2859 ± 0.0061
283.15 K	0.2703 ± 0.0058
288.15 K	0.2547 ± 0.0056
293.15 K	0.2399 ± 0.0054
298.15 K	0.2289 ± 0.0052
303.15 K	0.2144 ± 0.005
308.15 K	0.2023 ± 0.0049
313.15 K	0.191 ± 0.0047
318.15 K	0.1813 ± 0.0046
323.15 K	0.1724 ± 0.0044
328.15 K	0.1611 ± 0.0043
333.15 K	0.1543 ± 0.0042
338.15 K	0.148 ± 0.0041
343.15 K	0.1411 ± 0.004
348.15 K	0.1332 ± 0.0039
353.15 K	0.1287 ± 0.0038
